In patent US8492341B2, “Amyloid-β binding peptides” (Alzyme Pty Ltd., priority 2006, dated 2013):

Columns and labels:
human Aβ42 = experiment: MTS cell viability assay of MP2 analogues, cells treated with human Aβ42 (20 μM); assay type: cell-based; settings: peptide 80-400 μM
Procedure: FIG. 7 illustrates the effect of various peptide analogues of the peptide analogue of SEQ ID NO:2 on cell viability associated with human Aβ1-42. Cells were treated with human Aβ42 peptide (20 μM) in the absence or presence of increasing doses of MP2, MP4, MP5 or MP6 (n=6, for each peptide). Cell viability was assessed by the MTS assay.
Cells were treated with human Aβ42 peptide (20 μM) in the absence or presence of increasing doses of MP2, MP4, MP5 or MP6 (n=6, for each peptide). Cell viability was assessed by the MTS assay.

M17 Neuroblastoma cells = experiment: MTS cell viability assay, cell death induced by human Aβ1-42 (40 μM); assay type: cell-based
Procedure: M17 Neuroblastoma cells were seeded in a 48 well plate at a density of 50,000 cells per well. The plate was incubated for 24 hours at 37° C. in media (OPTI-MEM) containing 10% FCS. The next day the cells were treated with human Aβ1-42 (40 μM) in the presence or absence of the peptides 15merTNP or peptide analogue MP2 (FIG. 2). The peptides were provided at concentrations ranging from 20-400 μM prepared in Neuro basal media containing B27 supplement without antioxidants. Following incubation (4 days at 37° C.), cell viability was assessed using the CellTiter 96® AQueous One Solution cell proliferation assay (MTS; Promega, Wis., USA) as per manufactures instructions. Briefly, 200 μl of MTS reagent (1/10 dilution) was added directly to the culture wells and the plate incubated for 3 hours at 37° C. Following incubation, 150 μl of the solution was transferred to a 96 well plate and the absorbance is determined spectrophotometrically at 490 nm.
Similar to the MTT assay, the MTS assay is a colorimetric method for determining the number of viable cells in proliferation or cytotoxicity assays. The principle of the MTS assay is the same as the MTT assay, except for the tetrazolium compound that is bio-reduced by the mitochondria of the cells, forming a coloured formazan product that is soluble (rather than insoluble for the MTT assay) in tissue culture medium. This conversion is accomplished by NADPH or NADH produced by dehydrogenase enzymes in metabolically active cells: Berridge M V. And Tan A. S. (1993) Characterisation of the cellular reduction of 3-(4,5-dimethylthiazol-2-yl)-2,5-diphenyltetrazolium bromide (MTT): Subcellular localisation, substrate dependence and involvement of mitochondrial electron transport in MTT reduction. Arch. Biochem. Biophys. 303, 474-82.
The effect of human Aβ1-42 (40 μM) on cell viability was determined in triplicate in each of the 10 MTS assays (i.e. n=30) performed in this study. All data are presented as means±SEM.
The effect of peptide analogue MP2 to protect against human Aβ42-induced toxicity was then determined using the MTS assay in triplicate in two separate experiments for all doses (i.e. n=6), unless otherwise specified. The effectiveness of MP2 was compared against the 15merTNP.

[1] = parameters: species or system mice (129×1 strain); settings: mouse, in vivo
Procedure: Another essential requirement of drug development is the ability of the peptide to cross the BBB and impact on targeted tissue. To measure the ability of 15merTNP and peptide analogue MP2 to cross the BBB, intracerebroventricular (i.c.v) delivery was assessed. The use of i.c.v injections on animal models allows for high doses to be delivered straight to the ventricular spaces where it can cross the parenchyma layer to the brain matter.
For i.c.v injections, control mice (129×1 strain) were anesthetized with intraperitoneal ketamine/xylazine at a dose of 10 ml/kg and then administered with 200 μg of either peptide (90 nmol). Both radioactive (^3H-labelled; hot) and non-radioactive (cold) was used to allow physiological doses of peptide to be delivered.
To determine whether the peptides had effectively penetrated into the brain parenchyma, a capillary depletion experiment was performed. After 25 min post injection the animal was sacrificed and the brain removed. This was homogenized and centrifuged for 10 min at 13000 rpm at 4° C. resulting in a supernatant containing predominately radioactivity from the cortex and a pellet with radioactivity from the capillaries and endothelium. A comparison of radioactivity in each sample was conducted to assess percentage of peptide movement into the cortex. The amount of radioactivity in the capillary pellet of mice that were perfused and not perfused with saline solution was compared to determine the percentage of peptide bound to the luminal surface of the capillaries and sequestered by brain endothelial cells.
A detailed necropsy was performed on each animal following perfusion to thoroughly assess peptide movement throughout peripheral organs, central nervous tissue and blood. […] Thus the concentration of labelled tritium could be measured per mass of sample and using this and the known ratio of non-labelled peptide present, the concentration of total peptide could be determined.
The pharmacokinetic profile of peptide analogue MP2 over four time points, post i.c.v injection into the CNS was determined. […]

Ac-NRTPQMLKR-NH2 [MP2, Ac-Asn-Arg-Thr-Pro-Gln-Met-Leu-Lys-Arg-NH2]
cell viability following treatment with human Aβ42 (human Aβ42): significantly increased
maximum reduction in cell toxicity associated with human Aβ1-42 (M17 Neuroblastoma cells; Aβ1-42 40 μM): around 15%
effect on cell death associated with human Aβ1-42 (M17 Neuroblastoma cells; peptide concentration ≧200 μM, P<0.05): significantly reduced cell death
effect on cell death associated with human Aβ1-42 (M17 Neuroblastoma cells; peptide concentrations ≦80 μM): no effect
crossing of the blood brain barrier [1]: poorly
peptide removed from the CNS [1]: 99%
